Experimental findings from patent US6833456B2, “Indolyl-urea derivatives of thienopyridines useful as antiangiogenic agents, and methods for their use” (Agouron Pharmaceuticals, Inc., priority 2002, dated 2004) are described below.

The test system of experiment [1] is human umbilical vein endothelial cells (HUVEC). The experiment can be described thus: HUVEC+VEGF proliferation assay. To be noted: VEGF 6 ng/mL, MTT. Format: cell-based. Summed up: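 Proliferation driven by VEGF (final 6 ng/mL) was quantified by MTT reduction (A595) 72 h after stimulation. Passage 3-4 HUVEC were starved for 24 h in 1% FBS F12K and given test agent 1 h before VEGF, with DMSO at 0.1% final.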

Experiment [2] addresses T1, unphosphorylated VEGF-R2Δ50 (FLVK) (Homo sapiens, UniProt P35968, DEL940-989/E990V).
T1 construct: VEGF-R2Δ50 contains residues 806-939 and 990-1171; made in house; host or cells: baculovirus/insect cell system
The experiment in a line: VEGF-R2 coupled spectrophotometric assay, unphosphorylated construct (FLVK). Format: biochemical. To be noted: for inhibition at 0.05 µM: percent inhibition at 50 nM. Summed up:
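Continuous coupled assay (PEP, PK, LDH; NADH loss at 340 nm) in 200 mM HEPES pH 7.5 with 3 mM ATP, 20 mM poly(E4Y1), 60 mM MgCl2 plus 2 mM MnCl2, started with 5-40 nM non-autophosphorylated VEGF-R2Δ50. Ki values from activity across compound concentrations, Morrison fit.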

The next experiment concerns the target T2, PDGFRβ (Homo sapiens, UniProt P09619).
T2 construct: expressed in transfected cells; host or cells: porcine aorta endothelial (PAE) cells
The experiment in a line: PAE-PDGFRβ phosphorylation in PAE-PDGFRB cells assay. Format: cell-based. To be noted: PAE cells overexpressing human PDGFRβ, PDGF-BB stimulated; read-out: PAE PDGFR autophos IC50. The method, boiled down: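 PAE cells overexpressing human PDGFRβ, serum-starved 16 h (0.1% FBS), compound 1 h at 37° C (0.5% DMSO), then 1 μg/mL PDGF-BB with 2 mM Na3VO4 for 8 min. Receptor captured by anti-PDGFRβ, phosphotyrosine detected by HRP-PY20/TMB at 450 nm; IC50 by four-parameter fit.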

Where “and” joins values, the source holds several entries; their conditions need not be identical. Equal entries are not always repeated.

T1 sequence (P35968 with tags, fused parts or gaps DEL940-989/E990V limits assumed): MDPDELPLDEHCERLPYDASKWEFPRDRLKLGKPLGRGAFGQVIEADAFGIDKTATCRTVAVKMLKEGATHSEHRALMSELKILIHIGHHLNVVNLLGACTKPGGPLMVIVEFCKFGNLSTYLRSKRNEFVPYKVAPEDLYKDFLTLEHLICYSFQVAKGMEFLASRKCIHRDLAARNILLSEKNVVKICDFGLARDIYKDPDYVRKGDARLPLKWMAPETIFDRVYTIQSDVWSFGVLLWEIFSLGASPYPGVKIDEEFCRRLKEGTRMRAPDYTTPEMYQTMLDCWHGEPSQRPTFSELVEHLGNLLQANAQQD
T2 sequence (P09619 33-1106): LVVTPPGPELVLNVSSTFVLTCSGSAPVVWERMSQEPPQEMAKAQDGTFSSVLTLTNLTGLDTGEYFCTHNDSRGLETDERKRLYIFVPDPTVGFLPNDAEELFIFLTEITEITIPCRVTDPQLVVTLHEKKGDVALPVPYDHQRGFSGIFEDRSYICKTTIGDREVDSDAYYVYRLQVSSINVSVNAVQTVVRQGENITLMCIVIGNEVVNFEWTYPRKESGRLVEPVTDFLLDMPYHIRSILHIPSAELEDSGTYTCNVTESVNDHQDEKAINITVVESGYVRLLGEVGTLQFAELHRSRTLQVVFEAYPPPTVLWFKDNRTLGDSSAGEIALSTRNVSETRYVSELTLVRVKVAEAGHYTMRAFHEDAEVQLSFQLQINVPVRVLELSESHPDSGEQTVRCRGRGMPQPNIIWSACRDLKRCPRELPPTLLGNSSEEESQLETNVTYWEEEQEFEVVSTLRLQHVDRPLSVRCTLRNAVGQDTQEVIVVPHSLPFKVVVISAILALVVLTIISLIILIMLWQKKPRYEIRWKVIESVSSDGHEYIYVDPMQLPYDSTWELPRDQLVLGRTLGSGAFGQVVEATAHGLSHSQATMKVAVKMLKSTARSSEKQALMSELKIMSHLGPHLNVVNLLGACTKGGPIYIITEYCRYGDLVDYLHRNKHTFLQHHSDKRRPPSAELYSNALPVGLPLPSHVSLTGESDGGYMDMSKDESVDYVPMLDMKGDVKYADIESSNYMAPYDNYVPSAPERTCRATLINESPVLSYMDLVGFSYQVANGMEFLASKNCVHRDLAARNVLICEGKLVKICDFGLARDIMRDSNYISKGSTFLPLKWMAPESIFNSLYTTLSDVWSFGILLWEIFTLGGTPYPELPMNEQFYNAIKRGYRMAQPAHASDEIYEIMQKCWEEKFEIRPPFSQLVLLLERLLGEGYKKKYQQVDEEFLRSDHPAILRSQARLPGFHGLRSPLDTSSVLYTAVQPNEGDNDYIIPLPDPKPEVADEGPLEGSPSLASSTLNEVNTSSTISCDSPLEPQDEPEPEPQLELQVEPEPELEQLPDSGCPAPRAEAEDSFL

Usually IC50 stands for the concentration that gives 50% inhibition. What is called Ki is the dissociation constant of the complex between target and ligand, obtained from inhibition or displacement. In general, inhibition refers to the share of the control response that was lost under treatment. A lower inhibition goes with little suppression. Consider `CNC(=O)n1c(C)cc2cc(Nc3ccnc4cc(C(=O)N5CCC[C@@H]5CO)sc34)ccc21` [Example 1a, 5-[2-(2R-Hydroxymethyl-pyrrolidine-1-carbonyl)-thieno[3,2-b]pyridin-7-ylamino]-2-methyl-indole-1-carboxylic acid methylamide], for which the IC50 in experiment [1] (Homo sapiens, HUVEC, 72 h) was 0.91 nM; on PDGFRβ, 239 nM. The same molecule displayed a Ki in experiment [2] of 0.69 nM. This molecule also yielded an inhibition at 0.05 µM in experiment [2] of 90%.
With `CNC(=O)n1c(C)cc2cc(Nc3ccnc4cc(C(=O)N5CCC[C@@H]5COC)sc34)ccc21` [Example 1b, 5-[2-(2R-Methoxymethyl-pyrrolidine-1-carbonyl)-thieno[3,2-b]pyridin-7-ylamino]-2-methyl-indole-1-carboxylic acid methylamide], in experiment [1] (Homo sapiens, HUVEC, 72 h), the IC50 stood at 0.69 nM. In experiment [2], this molecule returned a Ki of 0.96 nM and an inhibition at 0.05 µM of 88%. The IC50 on PDGFRβ is 73 nM and 86 nM.
For `Cc1cc2cc(Nc3ccnc4cc(C(=O)N5CCC[C@@H]5CO)sc34)ccc2n1C(=O)NC1CC1` [Example 1c, 5-[2-(2R-Hydroxymethyl-pyrrolidine-1-carbonyl)-thieno[3,2-b]pyridin-7-ylamino]-2-methyl-indole-1-carboxylic acid cyclopropylamide], the 50% inhibitory concentration (IC50) in experiment [1] (Homo sapiens, HUVEC, 72 h) turned out to be 0.7 nM. In experiment [2], this molecule returned a Ki of 0.67 nM and an inhibition at 0.05 µM of 98%. Also, the IC50 on PDGFRβ is > 100 nM and 179 nM.
`COC[C@H]1CCCN1C(=O)c1cc2nccc(Nc3ccc4c(c3)cc(C)n4C(=O)NC3CC3)c2s1` [Example 1d, 5-[2-(2R-Methoxymethyl-pyrrolidine-1-carbonyl)-thieno[3,2-b]pyridin-7-ylamino]-2-methyl-indole-1-carboxylic acid cyclopropylamide]: in experiment [1] (72 hours), the IC50 turned out to be 0.56 nM. Moreover, in experiment [2], the Ki is 1.1 nM and 0.05 µM produced 97% inhibition. Besides, the IC50 on PDGFRβ was 42 nM and 45 nM and 74 nM.
In experiment [2], `Cc1cc2cc(Nc3ccnc4cc(C(=O)N5CC[C@H](O)C5)sc34)ccc2n1C(=O)NC1CC1` [Example 1k, 5-[2-(3S-Hydroxy-pyrrolidine-1-carbonyl)-thieno[3,2-b]pyridin-7-ylamino]-2-methyl-indole-1-carboxylic acid cyclopropylamide] registered a Ki of 0.63 nM and an inhibition at 0.05 µM of 97%. In addition, the IC50 on PDGFRβ was more than 1000 nM.
Consider `CNC(=O)n1c(C)cc2cc(Nc3ccnc4cc(C(=O)N5CC[C@@H](OC)C5)sc34)ccc21` [Example 1l, 5-[2-(3R-Methoxy-pyrrolidine-1-carbonyl)-thieno[3,2-b]pyridin-7-ylamino]-2-methyl-indole-1-carboxylic acid methylamide], for which the half-maximal inhibitory concentration (IC50) in experiment [1] (Homo sapiens, HUVEC, 72 h) is 0.3 nM; on PDGFRβ it was 49 nM and 45 nM and 95 nM. Moreover, in experiment [2], the inhibition at 0.05 µM is 94%.
In the case of `CNC(=O)n1c(C)cc2cc(Nc3ccnc4cc(C(=O)N5CC[C@@H](O)C5)sc34)ccc21` [Example 1n, 5-[2-(3R-Hydroxy-pyrrolidine-1-carbonyl)-thieno[3,2-b]pyridin-7-ylamino]-2-methyl-indole-1-carboxylic acid methylamide], the IC50 in experiment [1] (Homo sapiens, HUVEC, 72 h) is 0.64 nM; at PDGFRβ, > 1000 nM and 2600 nM. The molecule further showed an inhibition at 0.05 µM in experiment [2] of 94%.
In the case of `C#CCNC(=O)n1c(C)cc2cc(Nc3ccnc4cc(C(=O)N5CC[C@@H](O)C5)sc34)ccc21` [Example 1o, 5-[2-(3R-Hydroxy-pyrrolidine-1-carbonyl)-thieno[3,2-b]pyridin-7-ylamino]-2-methyl-indole-1-carboxylic acid prop-2-ynylamide], the IC50 in experiment [1] (Homo sapiens, HUVEC, 72 h) is 0.34 nM. In addition, in experiment [2], the inhibitory constant (Ki) was 0.37 nM and at 0.05 µM the inhibition was 96%. Moreover, the IC50 on PDGFRβ stood at 533 nM.
Regarding `CNC(=O)n1c(C)cc2cc(Nc3ccnc4cc(C(=O)N5CCC[C@H]5COC)sc34)ccc21` [Example 1t, 5-(2-[(S)-2-(methoxymethyl)pyrrolidine-1-carbonyl]thieno[3,2-b]pyridin-7-ylamino)-2-methylindole-1-carboxylic acid methylamide], in experiment [2], the affinity corresponds to a Ki of 1.13 nM and 0.05 µM produced 87% inhibition. Also, the 50% inhibitory concentration (IC50) at PDGFRβ was 116 nM and > 100 nM and 97 nM.
In experiment [2], `CNC(=O)n1c(C)cc2cc(Nc3ccnc4cc(-c5nccn5C)sc34)ccc21` [Example 2a, 5-(2-[1-methyl-1H-imidazol-2-yl]thieno[3,2-b]pyridin-7-ylamino)-2-methylindole-1-carboxylic acid methylamide] registered a Ki of 2.1 nM and an inhibition at 0.05 µM of 84%. Besides, at PDGFRβ, the IC50 is 57 nM and 96 nM and 61 nM and 41 nM.
With `CNC(=O)n1c(C)cc2cc(Nc3ccnc4cc(C(=O)N5CCC[C@H]5CO)sc34)ccc21` [Example 2b, 5-(2-[(S)-2-(hydroxymethyl)pyrrolidine-1-carbonyl]thieno[3,2-b]pyridin-7-ylamino)-2-methylindole-1-carboxylic acid methylamide], in experiment [2], affinity was put at a Ki of 1.03 nM and the inhibition at 0.05 µM is 85%. The IC50 on PDGFRβ was 856 nM and > 100 nM and 616 nM and 556 nM and 657 nM and 682 nM.
Regarding `COC[C@@H]1CCCN1C(=O)c1cc2nccc(Nc3ccc4c(c3)cc(C)n4C(=O)NC3CC3)c2s1` [Example 2c, 5-(2-[(S)-2-(methoxymethyl)pyrrolidine-1-carbonyl]thieno[3,2-b]pyridin-7-ylamino)-2-methylindole-1-carboxylic acid cyclopropylamide], the IC50 in experiment [1] (Homo sapiens, HUVEC, 72 h) was 0.44 nM; at PDGFRβ it was 84 nM and 105 nM and 87 nM. For the same molecule, in experiment [2], the Ki was determined as 0.56 nM. The molecule further returned an inhibition at 0.05 µM in experiment [2] of 97%.
On to `Cc1cc2cc(Nc3ccnc4cc(-c5nc(C(C)(C)O)cs5)sc34)ccc2n1C(=O)NC1CC1` [Example 3b, 5-{2-[4-(1-Hydroxy-1-methyl-ethyl)-thiazol-2-yl]-thieno[3,2-b]pyridin-7-ylamino}-2-methyl-indole-1-carboxylic acid cyclopropylamide], for which, in experiment [2], the Ki stood at 0.21 nM and the inhibition at 0.05 µM is 95%. The IC50 at PDGFRβ was 142 nM and 125 nM.
In experiment [2], `COC[C@@H]1CCCN1C(=O)c1cc2nccc(Oc3ccc4c(c3)cc(C)n4C(=O)NC3CC3)c2s1` [Example 4b, 5-(2-[(S)-2-(methoxymethyl)pyrrolidine-1-carbonyl]thieno[3,2-b]pyridin-7-yloxy)-2-methylindole-1-carboxylic acid cyclopropylamide] registered a Ki of 0.13 nM and an inhibition at 0.05 µM of 97%. For the same molecule, the IC50 at PDGFRβ was 22 nM and 24 nM and 23 nM.
As for `C#CCNC(=O)n1c(C)cc2cc(Oc3ccnc4cc(C(=O)N5CCC[C@H]5COC)sc34)ccc21` [Example 4c, 5-(2-[(S)-2-(methoxymethyl)pyrrolidine-1-carbonyl]thieno[3,2-b]pyridin-7-yloxy)-2-methylindole-1-carboxylic acid prop-2-ynylamide], in experiment [2], the Ki came to 0.1 nM and the inhibition at 0.05 µM amounted to 96%. In addition, the IC50 on PDGFRβ was 16 nM and 18 nM and 15 nM.
In experiment [2], `COC[C@@H]1CCCN1C(=O)c1cc2nccc(Oc3ccc4c(c3)cc(C)n4C(=O)NCC#CCO)c2s1` [Example 4d, 5-(2-[(S)-2-(methoxymethyl)pyrrolidine-1-carbonyl]thieno[3,2-b]pyridin-7-yloxy)-2-methylindole-1-carboxylic acid (4-hydroxybut-2-ynyl)amide] registered a Ki of 0.41 nM and an inhibition at 0.05 µM of 91%. For the same molecule, the IC50 on PDGFRβ is 76 nM and 71 nM and 64 nM.
In experiment [2], `C#CCNC(=O)n1c(C)cc2c(F)c(Oc3ccnc4cc(C(=O)N5CCC[C@H]5CO)sc34)ccc21` [Example 5e, 4-Fluoro-5-[2-(2S-hydroxymethyl-pyrrolidine-1-carbonyl)-thieno[3,2-b]pyridin-7-yloxy]-2-methyl-indole-1-carboxylic acid prop-2-ynylamide] returned a Ki of 0.431 nM and an inhibition at 0.05 µM of 100%. For the same molecule, on PDGFRβ, the IC50 turned out to be 14.1 nM.
In experiment [2], `CNC(=O)n1c(C)cc2c(F)c(Oc3ccnc4cc(C(=O)N5CCC[C@H]5CO)sc34)ccc21` [Example 5n, 4-Fluoro-5-[(2-{[(2S)-2-(hydroxymethyl)pyrrolidin-1-yl]carbonyl}thieno[3,2-b]pyridin-7-yl)oxy]-N,2-dimethyl-1H-indole-1-carboxamide] had a Ki of 0.12 nM and an inhibition at 0.05 µM of 100%. Moreover, the IC50 at PDGFRβ came to 18.2 nM.
`C#CCNC(=O)n1c(C)c(Cl)c2c(F)c(Oc3ccnc4cc(C(=O)N5CC[C@H](O)C5)sc34)ccc21` [Example 6d, 3-Chloro-4-fluoro-5-[2-(3S-hydroxy-pyrrolidine-1-carbonyl)-thieno[3,2-b]pyridin-7-yloxy]-2-methyl-indole-1-carboxylic acid prop-2-ynylamide]: in experiment [2], the Ki amounted to 0.32 nM and the inhibition at 0.05 µM stood at 99%. The half-maximal inhibitory concentration (IC50) on PDGFRβ was 29.1 nM.
In experiment [2], `CNC(=O)n1c(C)cc2cc(Oc3ccnc4cc(C(=O)N5CC[C@H](O)C5)sc34)ccc21` [Example 9g, 5-[2-(3S-Hydroxy-pyrrolidine-1-carbonyl)-thieno[3,2-b]pyridin-7-yloxy]-2-methyl-indole-1-carboxylic acid methylamide] yielded a Ki of 0.243 nM and an inhibition at 0.05 µM of 98%. For the same molecule, the IC50 at PDGFRβ is 27 nM and 33 nM.
